According to patent US4503056A, “1-(Pyridazinyl)pyrazoline derivatives” (Abbott Laboratories, priority 1982, dated 1985):

Columns and labels:
dermal Arthus reaction = experiment: reverse passive Arthus reaction test; type: in vivo, Male Sprague-Dawley rats; conditions: rats; 100 mg/kg oral, 30 min before intradermal Anti-B.S.A.; lesion measured 4 hours later; reduction in lesion area vs control
Method: Proc. 35, 774 (1976). Each compound was administered orally to a group of four animals.
The reverse passive Arthus reaction test in rats is conducted as follows: Male Sprague-Dawley rats weighing approximately 130-160 g. are used, 4 rats per group. All animals are injected intravenously with 0.5 ml. 0.075% Bovine Serum Albumin (B.S.A.)+2% Evans Blue solution. Each rat then receives an oral dose of drug; one drug is administered per group.
Thirty minutes subsequent to drug dosing, each animal is injected intradermally with 0.05 ml. 1.44% Anti-B.S.A. into the dorsal skin. Four hours later the animals are sacrificed, the dorsal skin reflexed, and the lesion excised. Two perpendicular diameters of each lesion are measured. The average diameters of the lesions from the treated groups are compared with the average diameters from the control group to determine any drug effect.

carrageenin pleurisy = experiment: modification of the carrageenin pleurisy assay (Vinegar et al.); type: in vivo; conditions: Dose 100 (dose unit not given); for % Inhibition, Volume exudates: reduction in accumulation of exudate volume; for % Inhibition, Cells: reduction in accumulation of leukocytes
Excerpt: The anti-inflammatory activity of these compounds was established by using a modification of the carrageenin pleurisy assay described by Vinegar et al. Proc. Soc. Exp. Biol. Med. 143:711 (1973).

Row | SMILES | % Inhibition of lesion of dermal Arthus reaction (dermal Arthus reaction) | % Inhibition, Volume exudates (carrageenin pleurisy) [%] | % Inhibition, Cells (carrageenin pleurisy) [%]
1 | NC1=NN(c2ccc(-c3cccc(Cl)c3)nn2)CC1 [1-[6'-(meta-chlorophenyl)pyridazin-3'-yl]-3-aminopyrazol-2-ene] | 51% |  | 
2 | NC1=NN(c2ccc(-c3ccccc3Cl)nn2)CC1 [1-[6'-(ortho-chlorophenyl)-pyridazin-3'-yl]-3-aminopyrazol-2-ene] | 58% |  | 
3 | NC1=NN(c2ccc(-c3ccccc3)nn2)CC1 [1-[6'-Phenylpyridazin-3'-yl]-3-aminopyrazol-2-ene] | 65% | 73 | 51
4 | CC1CC(N)=NN1c1ccc(-c2ccccc2)nn1 (stereo not drawn) [1-[6'-phenylpyridazin-3'-yl]-3-amino-5-methylpyrazol-2-ene] | 54% |  | 
5 | CCCCC1C(=O)N(c2ccccc2)N(c2ccccc2)C1=O [Phenylbutazone, reference compound] | inactive | 59 | 13
